IC50 data for seven compounds are collected here from US20130196986A1 (priority 2010, published 2013).

As a reminder, the IC50 is the concentration that gives 50% inhibition.

This experiment has as its target T1, P2X7 receptor (Homo sapiens, UniProt Q99572).
T1 construct: stably expressing the full length P2X7 receptor; expressed in transfected cells
T1 sequence (Q99572 1-595): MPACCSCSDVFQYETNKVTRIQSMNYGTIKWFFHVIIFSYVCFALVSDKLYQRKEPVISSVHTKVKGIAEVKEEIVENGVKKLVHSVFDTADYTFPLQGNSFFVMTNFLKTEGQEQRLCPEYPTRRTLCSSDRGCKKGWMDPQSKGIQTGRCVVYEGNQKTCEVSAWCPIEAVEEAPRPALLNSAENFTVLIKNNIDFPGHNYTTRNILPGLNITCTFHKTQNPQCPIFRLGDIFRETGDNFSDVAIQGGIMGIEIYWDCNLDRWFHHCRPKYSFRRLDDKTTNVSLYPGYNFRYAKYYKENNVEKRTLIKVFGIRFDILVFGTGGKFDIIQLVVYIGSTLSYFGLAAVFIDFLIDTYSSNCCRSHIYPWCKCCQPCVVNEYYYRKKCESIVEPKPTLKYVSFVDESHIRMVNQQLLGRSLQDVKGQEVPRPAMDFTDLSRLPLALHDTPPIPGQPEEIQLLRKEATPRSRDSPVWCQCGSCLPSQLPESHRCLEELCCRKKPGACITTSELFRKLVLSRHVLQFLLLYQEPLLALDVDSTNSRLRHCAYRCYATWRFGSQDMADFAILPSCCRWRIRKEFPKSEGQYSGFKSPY
Nature of the experiment: Ca++ flux assay (FLIPR) in P2X7-HEK-293 cell line stably expressing the full length P2X7 receptor, Bz-ATP activation. The experiment is classed as cell-based. The settings on record: P2X7-HEK-293 cells; agonist Bz-ATP; fluorescence as total area over 90 seconds; read-out: P2X7 Ca Flux hu IC50. In a few lines: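 HEK-293 cells stably expressing full-length P2X7 were loaded with Ca++-sensitive dye for 1 h, with compound added during loading. Cells were stimulated with Bz-ATP on FLIPR. Fluorescence was integrated as total area over 90 s, and IC50 was taken as 50% inhibition of the maximal Ca++ response.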
Regarding `O=c1c2nnc(SCc3cc(Cl)cc(Cl)c3)n2ccn1-c1cccc(C(F)(F)F)c1F` [Compound 58, 3-(3,5-dichlorobenzylthio)-7-(2-fluoro-3-(trifluoromethyl)phenyl)-[1,2,4]triazolo[4,3-a]pyrazin-8(7H)-one], the IC50 is 427 nM. As to `Cc1c(Cl)cccc1-n1ccn2c(SCc3ccc(Cl)c(Cl)c3)nnc2c1=O` [Compound 103, 7-(3-chloro-2-methylphenyl)-3-(3,4-dichlorobenzylthio)-[1,2,4]triazolo[4,3-a]pyrazin-8(7H)-one], the IC50 is 1300 nM. The result for `COc1c(Cl)cccc1-n1ccn2c(SCc3ccccc3)nnc2c1=O` [Compound 80, 3-(benzylthio)-7-(3-chloro-2-methoxyphenyl)-[1,2,4]triazolo[4,3-a]pyrazin-8(7H)-one] reads 533 nM. The result for `O=c1c2nnc(SCc3ccccc3-c3ccccc3)n2ccn1-c1cccc(C(F)(F)F)c1Cl` [Compound 48, 3-(biphenyl-2-ylmethylthio)-7-(2-chloro-3-(trifluoromethyl)phenyl)-[1,2,4]triazolo[4,3-a]pyrazin-8(7H)-one] reads 17.3 nM; that for `Cc1c(-n2ccn3c(SCc4cc(Cl)cc(Cl)c4)nnc3c2=O)cccc1C(F)(F)F` [Compound 69, 3-(3,5-dichlorobenzylthio)-7-(2-methyl-3-(trifluoromethyl)phenyl)-[1,2,4]triazolo[4,3-a]pyrazin-8(7H)-one], 188 nM; that for `Cc1ccc(-c2ccccc2CS(=O)(=O)c2nnc3c(=O)n(-c4cccc(C(F)(F)F)c4C)ccn23)s1` [Compound 150], 48.9 nM. For `Cc1c(Cl)cccc1-n1ccn2c(S(=O)(=O)Cc3ccc(Cl)cc3)nnc2c1=O` [Compound 157, 7-(3-chloro-2-methylphenyl)-3-(4-chlorobenzylsulfonyl)-[1,2,4]triazolo[4,3-a]pyrazin-8(7H)-one], the half-maximal inhibitory concentration (IC50) came out at 136 nM.
